pIC50: −log10 of the molar value.
How the values were obtained:
[1] = biological target: P2X purinoceptor 4 (Homo sapiens, UniProt Q99571); assay: Antagonist activity at human P2X4 receptor overexpressed in human 1321N1 cells assessed as inhibition of ATP-induced calcium responses by Fluo-4 AM/Ca2+ Flux assay; format: cell-based; settings: for pIC50: read-out: IC50; for IC50: read-out: pIC50 (converted)
[2] = Lipophilicity, logD of compound in n-octanol and buffer at pH 7.4 by LC-MS analysis; format: physicochemical
[3] = Plasma protein binding in unknown origin; format: ADME, cell-free; settings: read-out: PPB (converted)
[4] = Metabolic stability in C57BL/6 mouse liver microsomes assessed as remaining parent compound by UPLC-UV/MS analysis; format: ADME, Microsome
[5] = In vivo biodistribution in adult female C57Bl/6 mouse assessed as accumulation in intestine at about 5 MBq, iv measured after 2 to 85 mins by PET imaging analysis; format: ADME, organism-based; settings: time 2-85 min
[6] = In vivo biodistribution in adult female C57Bl/6 mouse assessed as accumulation in bladder at 5 MBq, iv measured after 15 to 85 mins by PET imaging analysis; format: ADME, organism-based, Urinary bladder; settings: time 15-85 min
[7] = Stability in human serum measured up to 90 mins at 3.1 to 8.7 MBq by analytical radio-HPLC analysis; format: ADME, cell-free; settings: dose 3.1-8.7 MBq, read-out: Stability
[8] = Stability in mouse serum measured up to 90 mins at 3.1 to 8.7 MBq by analytical radio-HPLC analysis; format: ADME, cell-free; settings: dose 3.1-8.7 MBq, read-out: Stability
[9] = Octanol/PBS partition coefficient, log D of the radiolabeled compound at 420 to 460 kBq at pH 7.4 by gamma-counting analysis; format: physicochemical; settings: dose 420-460 kBq
[10] = In vivo biodistribution in adult female C57Bl/6 mouse assessed as accumulation in liver at about 5 MBq, iv measured after 15 mins by PET imaging analysis; format: ADME, organism-based; settings: 0.25 h
[11] = In vivo biodistribution in adult female C57Bl/6 mouse assessed as accumulation in bladder at 5 MBq, iv measured after 2 to 85 mins by PET imaging analysis; format: ADME, organism-based, Urinary bladder; settings: time 2-85 min
[12] = In vivo biodistribution in adult female C57Bl/6 mouse assessed as accumulation in gall bladder at about 5 MBq, iv measured after 30 mins by PET imaging analysis; format: ADME, organism-based; settings: 0.5 h
[13] = test system: THP-1; assay: Inhibition of NLRP3 inflammasome activation in LPS-activated human THP-1 cells assessed as inhibition of LPS/ATP induced IL-1beta secretion at 100 nM preincubated with PMA for 24 hrs followed further stimulated with LPS for 3 hrs and further incubated with compound and ATP for 30 mins by ELISA method; format: cell-based

P2X purinoceptor 4, sequence (Q99571 whole entry): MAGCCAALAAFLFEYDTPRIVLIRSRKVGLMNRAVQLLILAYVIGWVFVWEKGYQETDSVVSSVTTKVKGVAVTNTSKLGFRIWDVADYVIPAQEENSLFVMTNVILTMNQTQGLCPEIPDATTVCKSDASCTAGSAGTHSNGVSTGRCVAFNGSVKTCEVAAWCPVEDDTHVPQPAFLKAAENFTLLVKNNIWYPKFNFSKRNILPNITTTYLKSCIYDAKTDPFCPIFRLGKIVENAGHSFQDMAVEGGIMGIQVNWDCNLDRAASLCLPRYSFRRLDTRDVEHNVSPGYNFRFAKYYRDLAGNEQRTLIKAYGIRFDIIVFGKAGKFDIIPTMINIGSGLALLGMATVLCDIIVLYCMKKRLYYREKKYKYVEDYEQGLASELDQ

| SMILES | pIC50 [1] | further results |
| --- | --- | --- |
| Nc1ccc(N2C(=O)CC(=O)Nc3c2ccc2ccccc32)cc1 | 6.00 | – |
| O=C1CC(=O)N(c2ccccc2)c2ccc3ccccc3c2N1 | 5.03 | – |
| Nc1ccc(N2C(=O)CC(=O)Nc3c2ccc2ccccc32)cn1 | 5.00 | – |
| O=C1CC(=O)N(c2ccc(NS(=O)(=O)c3cccnc3F)cc2)c2ccc3ccccc3c2N1 | 5.95 | logD [2]: 1.78; fraction unbound [3]: 0.06; Stability [4]: 95%; IC50 [1]: 1100 nM |
| O=C1CC(=O)N(c2ccc(NS(=O)(=O)c3ccc(F)cc3Br)cc2)c2ccc3ccccc3c2N1 | 7.19 | – |
| O=C1CC(=O)N(c2ccc(NS(=O)(=O)Cc3ccc(F)cc3Cl)cc2)c2ccc3ccccc3c2N1 | 7.64 | logD [2]: 3.71; fraction unbound [3]: < 0.02; Stability [4]: 58% |
| O=C1CC(=O)N(c2ccc(NS(=O)(=O)Cc3c(Cl)cccc3Cl)cc2)c2ccc3ccccc3c2N1 | 7.13 | – |
| Cc1ccccc1S(=O)(=O)Nc1ccc(N2C(=O)CC(=O)Nc3c2ccc2ccccc32)cc1 | 6.94 | – |
| Cc1cc([18F])ccc1CS(=O)(=O)Nc1ccc(N2C(=O)CC(=O)Nc3c2ccc2ccccc32)cc1 | – | Drug uptake [5]: Active; Drug uptake [6]: Active; remaining at […] [7]: > 99%; remaining at […] [8]: > 99%; logD [9]: 3.43 |
| O=C1CC(=O)N(c2ccc(NS(=O)(=O)Cc3ccccc3Cl)cc2)c2ccc3ccccc3c2N1 | – | logD [2]: 3.39; fraction unbound [3]: < 0.02; Stability [4]: 71% |
| O=C1CC(=O)N(c2ccc(NS(=O)(=O)Cc3ccc(F)cc3)cc2)c2ccc3ccccc3c2N1 | 7.06 | – |
| Cc1ccc(F)cc1S(=O)(=O)Nc1ccc(N2C(=O)CC(=O)Nc3c2ccc2ccccc32)cc1 | 6.75 | – |
| O=C1CC(=O)N(c2ccc(NS(=O)(=O)C3CCCCC3)cc2)c2ccc3ccccc3c2N1 | 5.59 | – |
| COc1cc(F)ccc1S(=O)(=O)Nc1ccc(N2C(=O)CC(=O)Nc3c2ccc2ccccc32)cc1 | 7.23 | – |
| O=C1CC(=O)N(c2ccc(NS(=O)(=O)c3cccnc3[N+](=O)[O-])cc2)c2ccc3ccccc3c2N1 | 6.00 | – |
| CN(c1ccc(N2C(=O)CC(=O)Nc3c2ccc2ccccc32)cc1)S(=O)(=O)c1ccccc1 | 6.17 | – |
| O=C1CC(=O)N(c2ccc(NS(=O)(=O)Cc3ccccc3Cl)cn2)c2ccc3ccccc3c2N1 | 7.77 | – |
| Cc1cc(Br)ccc1S(=O)(=O)Nc1ccc(N2C(=O)CC(=O)Nc3c2ccc2ccccc32)cc1 | 6.58 | – |
| Cc1cc(Br)ccc1CS(=O)(=O)Nc1ccc(N2C(=O)CC(=O)Nc3c2ccc2ccccc32)cc1 | 7.01 | – |
| O=C1CC(=O)N(c2ccc(NS(=O)(=O)Cc3ccc(Br)cc3Cl)cc2)c2ccc3ccccc3c2N1 | 6.27 | – |
| Cc1cc(F)ccc1CS(=O)(=O)Nc1ccc(N2C(=O)CC(=O)Nc3c2ccc2ccccc32)cn1 | 7.85 | logD [2]: 2.59; fraction unbound [3]: 0.03; Stability [4]: 67% |
| Cc1cc([18F])ccc1S(=O)(=O)Nc1ccc(N2C(=O)CC(=O)Nc3c2ccc2ccccc32)cc1 | – | Drug uptake [10]: Active; Drug uptake [11]: Not_active; Drug uptake [12]: Active; remaining at […] [7]: > 99%; remaining at […] [8]: > 99%; logD [9]: 3.5 |
| COc1ccc(S(=O)(=O)Nc2ccc(N3C(=O)CC(=O)Nc4c3ccc3ccccc43)cc2)c(Cl)c1 | 5.22 | – |

| SMILES | pIC50 [1] | further results |
| --- | --- | --- |
| O=C1CC(=O)N(c2ccc(NC(=O)c3ccccc3Cl)cc2)c2ccc3ccccc3c2N1 | 6.32 | – |
| O=C1CC(=O)N(c2ccc(NS(=O)(=O)c3ccccc3Cl)cc2)c2ccc3ccccc3c2N1 | 6.35 | – |
| Cc1cc(B(O)O)ccc1CS(=O)(=O)Nc1ccc(N2C(=O)CC(=O)Nc3c2ccc2ccccc32)cc1 | 6.43 | – |
| O=C(Cc1cc(Br)ccc1Cl)Nc1ccc(N2C(=O)CC(=O)Nc3c2ccc2ccccc32)cc1 | 6.00 | – |
| O=C1CC(=O)N(c2ccc(NC(=O)c3cccnc3F)cc2)c2ccc3ccccc3c2N1 | 5.62 | – |
| Nc1ccc(N2C(=O)CC(=O)Nc3c2ccc2ccccc32)nc1 | 5.19 | – |
| O=C1CC(=O)N(c2ccc(NS(=O)(=O)c3cc(F)ccc3Cl)cc2)c2ccc3ccccc3c2N1 | 6.87 | logD [2]: 3.25; fraction unbound [3]: < 0.02; Stability [4]: 98% |
| O=C1CC(=O)N(c2ccc(NS(=O)(=O)c3cc(C(F)(F)F)ccc3Cl)cc2)c2ccc3ccccc3c2N1 | 5.56 | – |
| O=C1CC(=O)N(c2ccc(NS(=O)(=O)c3ccc(B(O)O)cc3Cl)cc2)c2ccc3ccccc3c2N1 | 6.05 | – |
| O=C1CC(=O)N(c2ccc(NS(=O)(=O)c3ccc(C(F)(F)F)cc3Cl)cc2)c2ccc3ccccc3c2N1 | 5.47 | – |
| O=C1CC(=O)N(c2ccc(NS(=O)(=O)Cc3ccccc3Cl)nc2)c2ccc3ccccc3c2N1 | 7.12 | – |
| N#Cc1ccc(S(=O)(=O)Nc2ccc(N3C(=O)CC(=O)Nc4c3ccc3ccccc43)cc2)c(Cl)c1 | 4.85 | – |
| O=C1CC(=O)N(c2ccc(NS(=O)(=O)c3ccccc3I)cc2)c2ccc3ccccc3c2N1 | 6.58 | – |
| O=C1CC(=O)N(c2ccc(NC(=O)c3cccnc3Cl)cc2)c2ccc3ccccc3c2N1 | 6.11 | – |
| COc1ccc(Br)cc1S(=O)(=O)Nc1ccc(N2C(=O)CC(=O)Nc3c2ccc2ccccc32)cc1 | 5.63 | – |
| CN1C(=O)CC(=O)N(c2ccc(N(C)S(=O)(=O)c3ccccc3)cc2)c2ccc3ccccc3c21 | < 5.00 | – |
| O=C1CC(=O)N(c2ccc(NS(=O)(=O)c3ccccc3Br)cc2)c2ccc3ccccc3c2N1 | 6.62 | – |
| Cc1cc(F)ccc1CS(=O)(=O)Nc1ccc(N2C(=O)CC(=O)Nc3c2ccc2ccccc32)nc1 | 7.60 | logD [2]: 2.36; fraction unbound [3]: 0.05; Stability [4]: 57% |
| Cc1cc(F)ccc1CS(=O)(=O)Nc1ccc(N2C(=O)CC(=O)Nc3c2ccc2ccccc32)cc1 | – | fraction unbound [3]: < 0.02; inhibition [13]: Active; Compund More Potent Than Bay1797; Stability [4]: 64%; IC50 [1]: 7.59 nM |
| O=C1CC(=O)N(c2ccc(NS(=O)(=O)Cc3c(F)cccc3Cl)cc2)c2ccc3ccccc3c2N1 | 6.97 | – |
| O=C1CC(=O)N(c2ccc(NS(=O)(=O)Cc3ccc(F)cc3Br)cc2)c2ccc3ccccc3c2N1 | 7.12 | – |
| COc1ccc(F)cc1S(=O)(=O)Nc1ccc(N2C(=O)CC(=O)Nc3c2ccc2ccccc32)cc1 | 6.33 | – |
| Cc1ccc(Cl)c(S(=O)(=O)Nc2ccc(N3C(=O)CC(=O)Nc4c3ccc3ccccc43)cc2)c1 | 6.43 | – |

| SMILES | pIC50 [1] | further results |
| --- | --- | --- |
| O=C1CC(=O)N(c2ccc(NS(=O)(=O)c3ccc(F)cc3Cl)cc2)c2ccc3ccccc3c2N1 | 6.89 | logD [2]: 3.55; fraction unbound [3]: < 0.02; Stability [4]: 93% |
| O=C1CC(=O)N(c2ccc(NC(=O)c3ccccc3F)cc2)c2ccc3ccccc3c2N1 | 5.64 | – |
| O=C1CC(=O)N(c2ccc(NS(=O)(=O)c3cccnc3Cl)cc2)c2ccc3ccccc3c2N1 | 6.50 | – |
| Cc1cc(F)ccc1S(=O)(=O)Nc1ccc(N2C(=O)CC(=O)Nc3c2ccc2ccccc32)cc1 | – | fraction unbound [3]: < 0.02; inhibition [13]: Active; Compund More Potent Than Bay1797; Stability [4]: 93% |
| O=C1CC(=O)N(c2ccc(NS(=O)(=O)c3cccc4ccccc34)cc2)c2ccc3ccccc3c2N1 | 5.78 | – |
| O=C1CC(=O)N(c2ccc(NC(=O)c3ccccc3)cc2)c2ccc3ccccc3c2N1 | 6.23 | – |
| O=C1CC(=O)N(c2ccc(NS(=O)(=O)c3ccc(F)cc3)cc2)c2ccc3ccccc3c2N1 | 4.61 | – |
| COc1cc(Br)ccc1S(=O)(=O)Nc1ccc(N2C(=O)CC(=O)Nc3c2ccc2ccccc32)cc1 | 6.46 | – |
| CNCC[C@H](Oc1cccc2ccccc12)c1cccs1 [DULOXETINE] | 5.23 | – |
| O=C1CC(=O)N(c2ccc(NS(=O)(=O)c3ccc(Br)cc3Cl)cc2)c2ccc3ccccc3c2N1 | 5.80 | – |
| Cc1cc(B(O)O)ccc1S(=O)(=O)Nc1ccc(N2C(=O)CC(=O)Nc3c2ccc2ccccc32)cc1 | 7.32 | – |
| Cc1cccc(Cl)c1S(=O)(=O)Nc1ccc(N2C(=O)CC(=O)Nc3c2ccc2ccccc32)cc1 | 6.41 | – |
| O=C1CC(=O)N(c2ccc(NS(=O)(=O)Cc3ccc(B(O)O)cc3Cl)cc2)c2ccc3ccccc3c2N1 | 6.53 | – |
| COc1ccc(S(=O)(=O)Nc2ccc(N3C(=O)CC(=O)Nc4c3ccc3ccccc43)cc2)cc1 | 5.40 | – |
| O=C1CC(=O)N(c2ccc(NC(=O)c3cccnc3[N+](=O)[O-])cc2)c2ccc3ccccc3c2N1 | 5.64 | – |
| O=C1CC(=O)N(c2ccc(NS(=O)(=O)Cc3ccccc3)cc2)c2ccc3ccccc3c2N1 | 6.72 | – |
| O=C1CC(=O)N(c2ccc(NS(=O)(=O)Cc3cc(F)ccc3Cl)cc2)c2ccc3ccccc3c2N1 | 7.09 | – |
| O=C1CC(=O)N(c2ccc(NS(=O)(=O)c3c(Cl)cccc3Cl)cc2)c2ccc3ccccc3c2N1 | 6.19 | – |
| O=C(Cc1cc(F)ccc1Cl)Nc1ccc(N2C(=O)CC(=O)Nc3c2ccc2ccccc32)cc1 | 6.35 | – |
| O=C1CC(=O)N(c2ccc(NS(=O)(=O)c3ccccc3F)cc2)c2ccc3ccccc3c2N1 | 5.93 | – |
| O=C1CC(=O)N(c2ccc(NS(=O)(=O)c3cc(Br)ccc3Cl)cc2)c2ccc3ccccc3c2N1 | 6.76 | – |
| COc1ccccc1S(=O)(=O)Nc1ccc(N2C(=O)CC(=O)Nc3c2ccc2ccccc32)cc1 | 7.05 | – |

From ChEMBL document CHEMBL6109055, “Naphtho[1,2-b][1,4]diazepinedione-Based P2X4 Receptor Antagonists from Structure-Activity Relationship Studies toward PET Tracer Development” (J Med Chem, 2025)
